“And” between values parts separate entries of the source, which are not always exact repeats. Equal entries are not always repeated.
Assays:
[1] = Relevant plasma concentrations for in vitro transporter assessment; format: in vivo
[2] = molecular target: T1, hrCYP2C8 (Homo sapiens, UniProt P10632); experiment: CYP reaction phenotyping with hrCYP2C8 (% remaining); format: in vitro ADME; conditions: hrCYP2C8 20 pmol CYP/mL, 5 μM TA, PB and TUDCA co-incubated
T1 sequence (P10632 1-490): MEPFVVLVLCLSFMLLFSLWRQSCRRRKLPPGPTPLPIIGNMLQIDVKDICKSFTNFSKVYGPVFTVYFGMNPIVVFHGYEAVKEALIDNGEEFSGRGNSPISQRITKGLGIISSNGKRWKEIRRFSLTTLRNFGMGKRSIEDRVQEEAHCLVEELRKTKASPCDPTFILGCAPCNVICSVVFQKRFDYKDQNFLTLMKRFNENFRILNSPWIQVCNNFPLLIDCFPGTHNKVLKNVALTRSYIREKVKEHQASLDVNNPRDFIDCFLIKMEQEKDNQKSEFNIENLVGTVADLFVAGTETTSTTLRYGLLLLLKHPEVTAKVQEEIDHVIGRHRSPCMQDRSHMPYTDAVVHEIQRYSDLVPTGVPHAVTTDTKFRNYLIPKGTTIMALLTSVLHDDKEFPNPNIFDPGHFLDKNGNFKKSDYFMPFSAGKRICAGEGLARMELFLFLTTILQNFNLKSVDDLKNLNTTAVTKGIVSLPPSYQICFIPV

[3] = molecular target: hrCYP2D6 (Homo sapiens, UniProt P10635); experiment: CYP reaction phenotyping with hrCYP2D6 (% remaining); format: in vitro ADME; conditions: hrCYP2D6 20 pmol CYP/mL, 5 μM TA, PB and TUDCA co-incubated
[4] = Rat drug-drug interaction study TDF + AMX0035: plasma pharmacokinetics; conditions: for Plasma Concentration of analyte at 0.50 hr / Plasma Concentration of analyte at 1.0 hr / Plasma Concentration of analyte at 2.0 hr / Plasma Concentration of analyte at 4.0 hr / Plasma Concentration of analyte at 8.0 hr / Plasma Concentration of analyte at 24 hr / Plasma Concentration of analyte at […] / AUC0-24 / AUClast / Cmax / Tlast / Tmax: male Sprague Dawley rats; for AUC0-24 / AUClast / Cmax / Tlast / Tmax: oral, plasma
[5] = molecular target: CYPs in human liver microsomes (HLM) (Homo sapiens, UniProt P10635); experiment: CYP reaction phenotyping in HLM with chemical inhibitors (% remaining); conditions: +NADPH +quinidine (CYP2D6)
[6] = tested on: CYPs in human liver microsomes (HLM); experiment: as above
[7] = molecular target: CYPs in human liver microsomes (HLM) (Homo sapiens, UniProt P33261); experiment: as above; conditions: +NADPH +N3B (CYP2C19)
[8] = molecular target: T2, CYPs in human liver microsomes (HLM) (Homo sapiens, UniProt P05177); experiment: as above; conditions: +NADPH +furafylline (CYP1A2), pre-incubated
T2 sequence (P05177 1-516): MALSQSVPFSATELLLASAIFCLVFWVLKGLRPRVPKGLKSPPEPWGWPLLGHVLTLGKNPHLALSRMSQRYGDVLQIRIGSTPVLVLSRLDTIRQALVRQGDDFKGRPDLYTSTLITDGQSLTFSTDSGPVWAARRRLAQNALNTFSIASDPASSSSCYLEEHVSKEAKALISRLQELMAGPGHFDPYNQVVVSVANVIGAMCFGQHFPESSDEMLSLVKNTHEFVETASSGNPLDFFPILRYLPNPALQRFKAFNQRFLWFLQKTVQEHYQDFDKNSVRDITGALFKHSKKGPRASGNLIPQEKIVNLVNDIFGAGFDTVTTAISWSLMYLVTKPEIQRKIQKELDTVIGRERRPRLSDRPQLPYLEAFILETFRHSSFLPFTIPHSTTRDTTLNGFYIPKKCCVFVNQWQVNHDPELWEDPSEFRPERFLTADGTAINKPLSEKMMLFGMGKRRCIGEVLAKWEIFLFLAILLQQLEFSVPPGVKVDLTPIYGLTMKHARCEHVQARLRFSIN

[9] = molecular target: CYPs in human liver microsomes (HLM) (Homo sapiens, UniProt P11712); experiment: as above; conditions: +NADPH +sulfaphenazole (CYP2C9)
[10] = Day 1, TDF only 25 mg/kg oral, individual animals, BLQ = <50 ng/mL
[11] = Day 1, TDF only 25 mg/kg oral, mean of 3, BLQ set to zero
[12] = Day 5, AMX0035 + TDF 840/25 mg/kg oral, individual animals, BLQ = <50 ng/mL
[13] = Day 5, AMX0035 + TDF 840/25 mg/kg oral, mean of 3, BLQ set to zero
[14] = Day 1, TDF only 25 mg/kg, individual animals
[15] = Day 1, TDF only 25 mg/kg, mean, N=3
[16] = Day 5, AMX0035 + TDF 840/25 mg/kg, individual animals
[17] = Day 5, AMX0035 + TDF 840/25 mg/kg, mean, N=3

CYPs in human liver microsomes (HLM) (Homo sapiens, UniProt P33261), sequence (P33261 whole entry): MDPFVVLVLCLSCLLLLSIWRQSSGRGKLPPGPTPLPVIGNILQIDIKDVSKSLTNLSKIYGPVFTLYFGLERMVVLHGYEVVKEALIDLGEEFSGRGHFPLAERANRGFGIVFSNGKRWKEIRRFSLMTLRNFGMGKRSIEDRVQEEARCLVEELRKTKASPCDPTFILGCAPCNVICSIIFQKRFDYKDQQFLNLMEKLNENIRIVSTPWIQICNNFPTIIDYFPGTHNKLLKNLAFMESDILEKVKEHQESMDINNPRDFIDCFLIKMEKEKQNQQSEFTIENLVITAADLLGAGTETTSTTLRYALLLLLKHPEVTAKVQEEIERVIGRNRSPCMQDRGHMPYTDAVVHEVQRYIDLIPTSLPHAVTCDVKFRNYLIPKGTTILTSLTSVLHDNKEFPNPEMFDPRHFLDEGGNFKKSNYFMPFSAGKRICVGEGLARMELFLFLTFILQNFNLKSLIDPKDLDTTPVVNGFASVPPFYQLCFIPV
CYPs in human liver microsomes (HLM) (Homo sapiens, UniProt P11712), sequence (P11712 whole entry): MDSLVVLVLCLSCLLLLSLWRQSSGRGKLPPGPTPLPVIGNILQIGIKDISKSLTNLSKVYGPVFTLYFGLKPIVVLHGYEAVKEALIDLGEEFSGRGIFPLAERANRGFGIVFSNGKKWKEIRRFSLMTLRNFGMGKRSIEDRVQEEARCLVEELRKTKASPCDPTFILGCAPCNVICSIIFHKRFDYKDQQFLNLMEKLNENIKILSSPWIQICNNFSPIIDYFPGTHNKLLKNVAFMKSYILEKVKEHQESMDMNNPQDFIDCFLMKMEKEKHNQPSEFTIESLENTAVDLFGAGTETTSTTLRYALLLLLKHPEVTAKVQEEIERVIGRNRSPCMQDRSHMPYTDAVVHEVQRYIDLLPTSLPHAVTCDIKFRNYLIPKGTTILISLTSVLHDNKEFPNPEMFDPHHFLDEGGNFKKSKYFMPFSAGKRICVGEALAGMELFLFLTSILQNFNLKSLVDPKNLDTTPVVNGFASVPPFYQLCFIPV
CYPs in human liver microsomes (HLM) (Homo sapiens, UniProt P10635), sequence (P10635 whole entry): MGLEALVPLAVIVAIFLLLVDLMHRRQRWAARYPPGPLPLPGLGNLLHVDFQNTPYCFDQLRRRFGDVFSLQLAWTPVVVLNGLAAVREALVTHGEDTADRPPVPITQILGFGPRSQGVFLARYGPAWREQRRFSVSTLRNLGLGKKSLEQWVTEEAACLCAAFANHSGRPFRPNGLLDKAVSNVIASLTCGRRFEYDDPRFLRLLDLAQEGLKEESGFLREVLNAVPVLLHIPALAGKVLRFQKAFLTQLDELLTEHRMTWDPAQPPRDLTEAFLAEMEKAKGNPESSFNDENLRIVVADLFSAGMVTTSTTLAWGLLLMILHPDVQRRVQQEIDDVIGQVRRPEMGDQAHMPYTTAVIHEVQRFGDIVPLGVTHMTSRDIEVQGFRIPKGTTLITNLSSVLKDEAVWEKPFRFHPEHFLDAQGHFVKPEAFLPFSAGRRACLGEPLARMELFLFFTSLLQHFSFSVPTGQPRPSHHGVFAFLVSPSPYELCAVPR
hrCYP2D6, sequence (P10635 whole entry): as above

tauroursodeoxycholic acid [TUDCA]
Plasma Cmax (total [I]1) ([1]; component of AMX0035, highest oral dose TUDCA 1000 mg, PB 3000 mg): 108 µM
Unbound [I]m, max ([1]; projected unbound Iin, max): 3.48 µM
Unbound Cmax (Unbound [I]1) ([1]; projected, from total Cmax and plasma protein binding): 1.62 µM
% Remaining of TA ([2]; 0 min): 100%
% Remaining of TA ([2]; 5 min): 97.1%
% Remaining of TA ([2]; 10 min): 99.3%
% Remaining of TA ([2]; 20 min): 101%
% Remaining of TA ([2]; 30 min): 101%
% Remaining of TA ([2]; 60 min): 99.8%
% Remaining of TA ([3]; 0 min): 100%
% Remaining of TA ([3]; 5 min): 98.4%
% Remaining of TA ([3]; 10 min): 97.8%
% Remaining of TA ([3]; 20 min): 97.0%
% Remaining of TA ([3]; 30 min): 99.2%
% Remaining of TA ([3]; 60 min): 98.6%
Plasma Concentration of analyte at 0.50 hr [4, 10]: 154 ng/mL and 148 ng/mL and 45.4 ng/mL
Plasma Concentration of analyte at 1.0 hr [4, 10]: 239 ng/mL and 197 ng/mL and 108 ng/mL
Plasma Concentration of analyte at 2.0 hr [4, 10]: 313 ng/mL and 186 ng/mL and 76.8 ng/mL
Plasma Concentration of analyte at 4.0 hr [4, 10]: 199 ng/mL and 153 ng/mL and 71.4 ng/mL
Plasma Concentration of analyte at 8.0 hr [4, 10]: 338 ng/mL and 211 ng/mL and 68.8 ng/mL
Plasma Concentration of analyte at 24 hr [4, 10]: 267 ng/mL and 287 ng/mL and 113 ng/mL
Plasma Concentration of analyte at […] [4, 10]: 201 ng/mL and 121 ng/mL and 69.3 ng/mL
Plasma Concentration of analyte at 0.50 hr [4, 11]: 116 ng/mL
Plasma Concentration of analyte at 1.0 hr [4, 11]: 181 ng/mL
Plasma Concentration of analyte at 2.0 hr [4, 11]: 192 ng/mL
Plasma Concentration of analyte at 4.0 hr [4, 11]: 141 ng/mL
Plasma Concentration of analyte at 8.0 hr [4, 11]: 139 ng/mL
Plasma Concentration of analyte at 24 hr [4, 11]: 222 ng/mL
Plasma Concentration of analyte at […] [4, 11]: 130 ng/mL
Mean endogenous plasma levels ([4]; Day 1, no AMX0035, over 24 hours): 130 to 222 ng/mL
Increase of plasma concentration vs Day 1 at each time point ([4]; Day 5): 30-50%
Peak (Cmax) plasma value ([4]; Day 5, AMX0035 840 mg/kg PO): 298 ng/mL
Plasma Concentration of analyte at 0.50 hr [4, 12]: 96.1 ng/mL and 225 ng/mL and 183 ng/mL
Plasma Concentration of analyte at 1.0 hr [4, 12]: 154 ng/mL and 236 ng/mL and 366 ng/mL
Plasma Concentration of analyte at 2.0 hr [4, 12]: 126 ng/mL and 200 ng/mL and 505 ng/mL
Plasma Concentration of analyte at 4.0 hr [4, 12]: 123 ng/mL and 176 ng/mL and 255 ng/mL
Plasma Concentration of analyte at 8.0 hr [4, 12]: 103 ng/mL and 172 ng/mL and 187 ng/mL
Plasma Concentration of analyte at 24 hr [4, 12]: 130 ng/mL and 216 ng/mL and 178 ng/mL
Plasma Concentration of analyte at […] [4, 12]: 84.0 ng/mL and 220 ng/mL and 235 ng/mL
Plasma Concentration of analyte at 0.50 hr [4, 13]: 168 ng/mL
Plasma Concentration of analyte at 1.0 hr [4, 13]: 252 ng/mL
Plasma Concentration of analyte at 2.0 hr [4, 13]: 277 ng/mL
Plasma Concentration of analyte at 4.0 hr [4, 13]: 185 ng/mL
Plasma Concentration of analyte at 8.0 hr [4, 13]: 154 ng/mL
Plasma Concentration of analyte at 24 hr [4, 13]: 175 ng/mL
Plasma Concentration of analyte at […] [4, 13]: 180 ng/mL
AUC0-24 [4, 14]: 2040 ng·h/mL and 4870 ng·h/mL and 5380 ng·h/mL
AUClast [4, 14]: 2040 ng·h/mL and 4870 ng·h/mL and 5380 ng·h/mL
Cmax [4, 14]: 113 ng/mL and 313 ng/mL and 287 ng/mL
Tlast [4, 14]: 24 h
Tmax [4, 14]: 24 h and 2.0 h
AUC0-24 [4, 15]: 409 ng·h/mL
AUClast [4, 15]: 4090 ng·h/mL
Cmax [4, 15]: 238 ng/mL
Tlast [4, 15]: 24 h
Tmax [4, 15]: 17 h
AUC0-24 [4, 16]: 2800 ng·h/mL and 4590 ng·h/mL and 5220 ng·h/mL
AUClast [4, 16]: 2800 ng·h/mL and 4590 ng·h/mL and 5220 ng·h/mL
Cmax [4, 16]: 154 ng/mL and 236 ng/mL and 505 ng/mL
Tlast [4, 16]: 24 h
Tmax [4, 16]: 1.0 h and 2.0 h
AUC0-24 [4, 17]: 4200 ng·h/mL
AUClast [4, 17]: 4200 ng·h/mL
Cmax [4, 17]: 298 ng/mL
Tlast [4, 17]: 24 h
Tmax [4, 17]: 1.3 h
% remaining of TA in HLM ([5]; 10 min): 110%
% remaining of TA in HLM ([5]; 20 min): 99.7%
% remaining of TA in HLM ([5]; 60 min): 87.2%
Metabolism by the major CYPs in HLM [6]: neither PB nor TUDCA is metabolized
% remaining of TA in HLM ([6]; +NADPH +ketoconazole (CYP3A), 10 min): 110%
% remaining of TA in HLM ([6]; +NADPH +ketoconazole (CYP3A), 20 min): 108%
% remaining of TA in HLM ([6]; +NADPH +ketoconazole (CYP3A), 30 min): 94.1%
% remaining of TA in HLM ([6]; Maximum Metabolism-1: +NADPH −inhibitor, pre-incubated, 5 min): 112%
% remaining of TA in HLM ([6]; Maximum Metabolism-1: +NADPH −inhibitor, pre-incubated, 10 min): 126%
% remaining of TA in HLM ([6]; Maximum Metabolism-1: +NADPH −inhibitor, pre-incubated, 20 min): 123%
% remaining of TA in HLM ([6]; Maximum Metabolism-1: +NADPH −inhibitor, pre-incubated, 30 min): 121%
% remaining of TA in HLM ([6]; Maximum Metabolism-1: +NADPH −inhibitor, pre-incubated, 60 min): 121%
% remaining of TA in HLM ([6]; Maximum Metabolism-2: +NADPH −inhibitor, 5 min): 103%
% remaining of TA in HLM ([6]; Maximum Metabolism-2: +NADPH −inhibitor, 10 min): 103%
% remaining of TA in HLM ([6]; Maximum Metabolism-2: +NADPH −inhibitor, 20 min): 103%
% remaining of TA in HLM ([6]; Maximum Metabolism-2: +NADPH −inhibitor, 30 min): 102%
% remaining of TA in HLM ([6]; Maximum Metabolism-2: +NADPH −inhibitor, 60 min): 96.9%
% remaining of TA in HLM ([6]; Negative Control-1: −NADPH −inhibitor, pre-incubated, 5 min): 117%
% remaining of TA in HLM ([6]; Negative Control-1: −NADPH −inhibitor, pre-incubated, 10 min): 129%
% remaining of TA in HLM ([6]; Negative Control-1: −NADPH −inhibitor, pre-incubated, 20 min): 119%
% remaining of TA in HLM ([6]; Negative Control-1: −NADPH −inhibitor, pre-incubated, 30 min): 130%
% remaining of TA in HLM ([6]; Negative Control-1: −NADPH −inhibitor, pre-incubated, 60 min): 132%
% remaining of TA in HLM ([6]; Negative Control-2: −NADPH −inhibitor, 5 min): 104%
% remaining of TA in HLM ([6]; Negative Control-2: −NADPH −inhibitor, 10 min): 104%
% remaining of TA in HLM ([6]; Negative Control-2: −NADPH −inhibitor, 20 min): 105%
% remaining of TA in HLM ([6]; Negative Control-2: −NADPH −inhibitor, 30 min): 106%
% remaining of TA in HLM ([6]; Negative Control-2: −NADPH −inhibitor, 60 min): 106%
% remaining of TA in HLM ([7]; 5 min): 106%
% remaining of TA in HLM ([7]; 10 min): 93.0%
% remaining of TA in HLM ([7]; 20 min): 93.1%
% remaining of TA in HLM ([7]; 30 min): 92.1%
% remaining of TA in HLM ([7]; 60 min): 94.5%
% remaining of TA in HLM ([8]; 5 min): 123%
% remaining of TA in HLM ([8]; 10 min): 123%
% remaining of TA in HLM ([8]; 20 min): 121%
% remaining of TA in HLM ([8]; 30 min): 120%
% remaining of TA in HLM ([8]; 60 min): 128%
% remaining of TA in HLM ([9]; 10 min): 96.9%
% remaining of TA in HLM ([9]; 20 min): 92.8%
% remaining of TA in HLM ([9]; 30 min): 95.0%
% remaining of TA in HLM ([9]; 60 min): 95.3%

— patent US20240139211A1, “METHODS AND COMPOSITIONS FOR TREATING AMYOTROPHIC LATERAL SCLEROSIS” (Amylyx Pharmaceuticals, Inc., priority 2022, published 2024)
